One series can be described thus: physchem. The note with it: pH 7.4.
In another series the test system is rats. As to the kind of experiment: Animal test: blood lipid level and cholesterol in rats. It is filed as in vivo. The note with it: twice per day, 0.05 or 0.1 mg/dose/rat, blood samples after one week. As for the experimental part: Compound 1, 2 or 3 prepared in examples 1-3 were administered to rats (10 rats in each group), respectively, twice per day, 0.05 mg/dose/rat or 0.1 mg/dose/rat. Blood samples were taken and analyzed after one week for blood lipid level and cholesterol.

As usually defined, the logD is lipophilicity at a set pH, counting ionised and neutral species. High values mean a more lipophilic compound, low ones a more hydrophilic compound. Regarding `CCC(C)(C)C(=O)OC1CC(O)C=C2C=CC(C)C(CCC3CC(O)CC(=O)O3)C21` (stereo not drawn) [Compound 1, 2,2-Dimethylbutyricacid-3-hydroxy-8-[2-(4-hydroxy-6-oxo-tetrahydropyran-2-yl)-ethyl]-7-methyl-1,2,3,7,8,8a-hexahydronaphthalen-1-yl ester], the logD in the series “physchem” came to 0.82. For the same molecule, the “blood lipid versus control group” value in the series with rats is on record as “lower than that of the control group”.
Regarding `CCC(C)(C)C(=O)OC1CC(O)C=C2C=CC(C)C(CCC3CC(CC(=O)O)OC(C)(C)O3)C21` (stereo not drawn) [Compound 3], in the series on rats, the “blood lipid versus control group” value was “lower than that of the control group”.

The record behind these values is patent publication US20070185193A1, “Huvastatin and its preparation and formulation comprising the huvastatin” (HUAIBEI HUIKE PHARMACEUTICAL, CO. LTD., priority 2003, published 2007).
